One series has as its target p110α (Homo sapiens, UniProt P42336). Put plainly: Biochemical IC50 assay.
For another series, the target named is p110β (Homo sapiens, UniProt P42338). Put plainly: Biochemical IC50 assay.
The conditions of series [1]: male CD1 mice; cited from earlier work.
In series [2] the test system is BCRP. To be noted: read-out: BCRP mediated transport inhibition IC50; for topotecan; cited from earlier work.
The next series has as its system Caco2. To be noted: 10 μM, absence of a P‐gp inhibitor; cited from earlier work.
The conditions of series [3]: male Wistar rats; cited from earlier work.
The conditions of series [4]: male humans; cited from earlier work.
In series [5] the test system is P‐gp. Particulars: cited from earlier work.
Series [6] has as its system P‐gp. To be noted: read-out: P‐gp mediated transport inhibition IC50, cited from earlier work.
For series [7] the following is noted: all species investigated including mouse, rat, dog and monkey; cited from earlier work.
For series [8] the following is noted: female Beagle dogs; cited from earlier work.
Series [9] concerns BCRP. Particulars: cited from earlier work.

Like-named read-outs stand apart in the source and are kept apart here.

Data on 26 molecules can be found in article PMC5094563 (Chemmedchem, 2016).

The IC50 is the midpoint of a concentration-inhibition curve.

p110α, sequence (P42336 109-1068): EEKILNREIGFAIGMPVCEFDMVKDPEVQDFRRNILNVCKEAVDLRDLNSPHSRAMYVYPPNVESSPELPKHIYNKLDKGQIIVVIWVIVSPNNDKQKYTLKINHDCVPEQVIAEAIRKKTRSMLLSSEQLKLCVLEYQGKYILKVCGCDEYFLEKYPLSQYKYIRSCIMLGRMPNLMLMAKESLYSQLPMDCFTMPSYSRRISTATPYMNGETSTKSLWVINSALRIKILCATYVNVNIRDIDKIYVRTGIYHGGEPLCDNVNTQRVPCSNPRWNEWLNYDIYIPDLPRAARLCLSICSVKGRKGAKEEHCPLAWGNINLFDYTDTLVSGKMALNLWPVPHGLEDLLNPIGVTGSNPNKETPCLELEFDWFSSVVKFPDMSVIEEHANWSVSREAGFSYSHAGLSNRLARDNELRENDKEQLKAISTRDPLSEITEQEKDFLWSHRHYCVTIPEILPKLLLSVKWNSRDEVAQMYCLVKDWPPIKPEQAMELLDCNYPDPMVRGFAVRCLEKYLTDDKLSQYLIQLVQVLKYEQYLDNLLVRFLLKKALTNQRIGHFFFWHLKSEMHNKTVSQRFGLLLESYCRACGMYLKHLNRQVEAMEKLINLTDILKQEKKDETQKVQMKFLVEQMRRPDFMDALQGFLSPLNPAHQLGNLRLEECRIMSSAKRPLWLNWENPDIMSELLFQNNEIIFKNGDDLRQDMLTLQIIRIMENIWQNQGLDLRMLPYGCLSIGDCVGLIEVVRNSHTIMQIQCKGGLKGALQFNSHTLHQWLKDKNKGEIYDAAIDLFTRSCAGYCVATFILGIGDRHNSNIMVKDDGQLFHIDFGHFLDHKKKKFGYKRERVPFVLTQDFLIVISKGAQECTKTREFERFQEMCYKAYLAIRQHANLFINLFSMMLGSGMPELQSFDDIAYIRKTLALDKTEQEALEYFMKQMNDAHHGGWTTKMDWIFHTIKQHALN
p110β, sequence (P42338 109-1070): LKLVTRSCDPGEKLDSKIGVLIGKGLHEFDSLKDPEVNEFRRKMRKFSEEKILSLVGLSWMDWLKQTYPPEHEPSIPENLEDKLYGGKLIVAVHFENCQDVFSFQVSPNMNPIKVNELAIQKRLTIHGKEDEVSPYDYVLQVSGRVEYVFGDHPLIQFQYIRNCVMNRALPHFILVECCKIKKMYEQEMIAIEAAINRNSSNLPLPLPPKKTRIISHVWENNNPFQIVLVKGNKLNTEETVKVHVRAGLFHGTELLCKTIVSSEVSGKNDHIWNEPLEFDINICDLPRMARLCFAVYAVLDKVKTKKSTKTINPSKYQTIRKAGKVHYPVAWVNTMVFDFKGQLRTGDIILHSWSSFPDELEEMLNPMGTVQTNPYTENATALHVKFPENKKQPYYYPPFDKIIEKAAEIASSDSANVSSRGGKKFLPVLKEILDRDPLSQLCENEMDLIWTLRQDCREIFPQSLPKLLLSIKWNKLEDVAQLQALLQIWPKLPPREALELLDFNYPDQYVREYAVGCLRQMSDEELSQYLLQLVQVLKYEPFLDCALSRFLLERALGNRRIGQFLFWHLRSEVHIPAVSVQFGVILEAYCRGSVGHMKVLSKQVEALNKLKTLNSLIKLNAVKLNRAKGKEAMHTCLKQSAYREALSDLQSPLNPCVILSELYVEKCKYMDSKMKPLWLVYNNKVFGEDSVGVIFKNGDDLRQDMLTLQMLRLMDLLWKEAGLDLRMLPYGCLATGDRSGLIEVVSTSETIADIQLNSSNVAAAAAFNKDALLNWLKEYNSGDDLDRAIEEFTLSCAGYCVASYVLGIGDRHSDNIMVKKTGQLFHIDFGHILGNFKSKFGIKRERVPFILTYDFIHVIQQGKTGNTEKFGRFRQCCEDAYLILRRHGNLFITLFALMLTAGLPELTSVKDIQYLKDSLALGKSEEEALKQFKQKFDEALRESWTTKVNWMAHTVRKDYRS

With `COc1c(OCCCN2CCCCC2)ccc2c1N=C(NC(=O)c1cccnc1)N1CCN=C21` [Compd 32 f, N ‐{7‐Methoxy‐8‐[3‐(piperidin‐1‐yl)propoxy]‐2,3‐dihydroimidazo[1,2‐c]quinazolin‐5‐yl}nicotinamide], the IC50 against p110α turned out to be 2.9 nM; against p110β it was 18.3 nM.
On to `COc1c(OCc2ccccc2)ccc2c1N=C(NC(=O)c1cccnc1)N1CCN=C21` [Compd 30, N ‐[8‐(Benzyloxy)‐7‐methoxy‐2,3‐dihydroimidazo[1,2‐c]quinazolin‐5‐yl]nicotinamide], for which the IC50 on p110α is 6.1 nM; against p110β it was 1510 nM.
Take `COc1c(OCCCN2CCOCC2)ccc2c1N=C(NC(=O)c1cnc(N)nc1C)N1CCN=C21` [Compd 39 j, 2‐Amino‐N‐{7‐methoxy‐8‐[3‐(morpholin‐4‐yl)propoxy]‐2,3‐dihydroimidazo[1,2‐c]quinazolin‐5‐yl}‐4‐methylpyrimidine‐5‐carboxamide]: the values for the IC50 against p110α and against p110β were 0.4 nM and 1 nM, respectively.
`COc1c(OCCCN2CCOCC2)ccc2c1N=C(NC(=O)c1cnc(N)nc1)N1CCN=C21` [Compd 39 i, 2‐Amino‐N‐{7‐methoxy‐8‐[3‐(morpholin‐4‐yl)propoxy]‐2,3‐dihydroimidazo[1,2‐c]quinazolin‐5‐yl}pyrimidine‐5‐carboxamide]: the “plasma‐free fraction” value in series [1] is on record as 27.6%; in series [3], 42.5%; in series [4], 15.8%; in series [8], 42.4%. The IC50 was 11500 nM with BCRP [2], 7000 nM with P‐gp [6] (for digoxin) and 7600 nM in the series on P‐gp [6] (for dipyridamole). For the same molecule, the “Caco2 P app apical (A) to basal (B)” value in the series with Caco2 was 5.69 ± 0.291 ×10⁻⁶ cm/s. Also, the “substrate of efflux transporter P‐gp” value in the series with P‐gp [5] is on record as “substrate”. Further, the “volume of distribution (V ss)” value in series [7] is 7 to 32 L/kg. Besides, in the series with BCRP [9], the “substrate of efflux transporter BCRP” value is on record as “substrate”.
As for `COc1c(O)ccc2c1N=C(NC(=O)c1cccnc1)N1CCN=C21` [Compd 31, N ‐(8‐Hydroxy‐7‐methoxy‐2,3‐dihydroimidazo[1,2‐c]quinazolin‐5‐yl)nicotinamide], the results for the IC50 against p110α and at p110β were 8.7 nM and 210 nM, respectively.
Molecule `O=C(NC1=Nc2c(ccc(OCCCN3CCOCC3)c2O)C2=NCCN12)c1cccnc1` [Compd 33, N ‐{7‐Hydroxy‐8‐[3‐(morpholin‐4‐yl)propoxy]‐2,3‐dihydroimidazo[1,2‐c]quinazolin‐5‐yl}nicotinamide] registered an IC50 on p110β of 55.6 nM.
Regarding `CC(C)COc1c(OCCCN2CCOCC2)ccc2c1N=C(NC(=O)c1cccnc1)N1CCN=C21` [Compd 34 c, N ‐{7‐Isobutoxy‐8‐[3‐(morpholin‐4‐yl)propoxy]‐2,3‐dihydroimidazo[1,2‐c]quinazolin‐5‐yl}nicotinamide], the values for the IC50 against p110α and against p110β were 10.2 nM and 29.1 nM, respectively.
On the same counts, the results for `COc1c(OCCCN(C)C)ccc2c1N=C(NC(=O)c1cccnc1)N1CCN=C21` [Compd 32 e, N ‐{8‐[3‐(Dimethylamino)propoxy]‐7‐methoxy‐2,3‐dihydroimidazo[1,2‐c]quinazolin‐5‐yl}nicotinamide] are 3.6 nM and 18 nM.
For the molecule `COc1c(OCCN2CCOCC2)ccc2c1N=C(NC(=O)c1cccnc1)N1CCN=C21` [Compd 32 h, N ‐{7‐Methoxy‐8‐[2‐(morpholin‐4‐yl)ethoxy]‐2,3‐dihydroimidazo[1,2‐c]quinazolin‐5‐yl}nicotinamide], the IC50 was determined as 0.9 nM at p110α and 11.2 nM against p110β.
Take `COc1c(OCCCN2CCOCC2)ccc2c1N=C(NC(=O)c1ccc(N(C)C)nc1)N1CCN=C21` [Compd 39 f, 6‐(Dimethylamino)‐N‐{7‐methoxy‐8‐[3‐(morpholin‐4‐yl)propoxy]‐2,3‐dihydroimidazo[1,2‐c]quinazolin‐5‐yl}nicotinamide]: the IC50 against p110α is 2.9 nM; at p110β, 58.7 nM.
As to `O=C(NC1=Nc2c(ccc(OCCCN3CCOCC3)c2OCc2ccncc2)C2=NCCN12)c1cccnc1` [Compd 34 f, N ‐{8‐[3‐(Morpholin‐4‐yl)propoxy]‐7‐[(pyridin‐4‐yl)methoxy]‐2,3‐dihydroimidazo[1,2‐c]quinazolin‐5‐yl}nicotinamide], the IC50 on p110β was found to be 19.3 nM.
Turning to `COc1c(OCCCN2CCOCC2)ccc2c1N=C(NC(=O)c1ccnc(N)c1)N1CCN=C21` [Compd 39 d, 2‐Amino‐N‐{7‐methoxy‐8‐[3‐(morpholin‐4‐yl)propoxy]‐2,3‐dihydroimidazo[1,2‐c]quinazolin‐5‐yl}isonicotinamide], the figures for the IC50 against p110α and at p110β were 6.2 nM and 16.6 nM, respectively.
For `COc1c(OCCCN2CCOCC2)ccc2c1N=C(NC(=O)c1sc(C)nc1C)N1CCN=C21` [Compd 39 b, N ‐{7‐Methoxy‐8‐[3‐(morpholin‐4‐yl)propoxy]‐2,3‐dihydroimidazo[1,2‐c]quinazolin‐5‐yl}‐2,4‐dimethyl‐1,3‐thiazole‐5‐carboxamide], the IC50 against p110α was determined as 1.6 nM; against p110β, 7.8 nM.
Consider `COc1c(OCCCN2CCOCC2)ccc2c1N=C(NC(=O)c1ccc3c(c1)OCO3)N1CCN=C21` [Compd 39 a, N ‐{7‐Methoxy‐8‐[3‐(morpholin‐4‐yl)propoxy]‐2,3‐dihydroimidazo[1,2‐c]quinazolin‐5‐yl}‐1,3‐benzodioxole‐5‐carboxamide], for which the IC50 at p110α was determined as 20.9 nM; on p110β it was 668 nM.
`COc1c(OCCCCN2CCOCC2)ccc2c1N=C(NC(=O)c1cccnc1)N1CCN=C21` [Compd 32 i, N ‐{7‐Methoxy‐8‐[4‐(morpholin‐4‐yl)butoxy]‐2,3‐dihydroimidazo[1,2‐c]quinazolin‐5‐yl}nicotinamide] came in with an IC50 against p110β of 88.1 nM.
The same measure, in the same setting: in the case of `COc1c(OCCCN2CCOCC2)ccc2c1N=C(NC(=O)c1cnccn1)N1CCN=C21` [Compd 39 g, N ‐{7‐Methoxy‐8‐[3‐(morpholin‐4‐yl)propoxy]‐2,3‐dihydroimidazo[1,2‐c]quinazolin‐5‐yl}pyrazine‐2‐carboxamide] it was 351 nM.
Consider `COc1c(OCCCN2CCOCC2)ccc2c1N=C(NC(=O)c1ccc(N)nc1)N1CCN=C21` [Compd 39 e, 6‐Amino‐N‐{7‐methoxy‐8‐[3‐(morpholin‐4‐yl)propoxy]‐2,3‐dihydroimidazo[1,2‐c]quinazolin‐5‐yl}nicotinamide], for which the IC50 is 0.6 nM at p110α and 7.9 nM at p110β.
In the same order, the values of `CCOc1ccc2c(c1OC)N=C(NC(=O)c1cccnc1)N1CCN=C21` [Compd 32 b, N ‐(8‐Ethoxy‐7‐methoxy‐2,3‐dihydroimidazo[1,2‐c]quinazolin‐5‐yl)nicotinamide] are 3.6 nM and 76.1 nM.
Turning to `O=C(NC1=Nc2c(ccc(OCCCN3CCOCC3)c2OCC2CCCCC2)C2=NCCN12)c1cccnc1` [Compd 34 d, N ‐{7‐(Cyclohexylmethoxy)‐8‐[3‐(morpholin‐4‐yl)propoxy]‐2,3‐dihydroimidazo[1,2‐c]quinazolin‐5‐yl}nicotinamide], the IC50 on p110β turned out to be 88.5 nM.
Consider `O=C(NC1=Nc2c(ccc(OCCCN3CCOCC3)c2OCC2CCOCC2)C2=NCCN12)c1cccnc1` [Compd 34 e, N ‐{8‐[3‐(Morpholin‐4‐yl)propoxy]‐7‐[(tetrahydro‐2H‐pyran‐4‐yl)methoxy]‐2,3‐dihydroimidazo[1,2‐c]quinazolin‐5‐yl}nicotinamide], for which the IC50 against p110α was found to be 2.1 nM; against p110β, 18.2 nM.
Turning to `CCCOc1c(OCCCN2CCOCC2)ccc2c1N=C(NC(=O)c1cccnc1)N1CCN=C21` [Compd 34 a, N ‐{8‐[3‐(Morpholin‐4‐yl)propoxy]‐7‐propoxy‐2,3‐dihydroimidazo[1,2‐c]quinazolin‐5‐yl}nicotinamide], inhibition at p110β was half-maximal at 7.8 nM (IC50).
Regarding `C=CCOc1c(OCCCN2CCOCC2)ccc2c1N=C(NC(=O)c1cccnc1)N1CCN=C21` [Compd 34 b, N ‐{7‐(Allyloxy)‐8‐[3‐(morpholin‐4‐yl)propoxy]‐2,3‐dihydroimidazo[1,2‐c]quinazolin‐5‐yl}nicotinamide], the IC50 against p110β is 22.6 nM.
On p110β, `COc1c(OCCCN2CCOCC2)ccc2c1N=C(NC(=O)c1ccncc1)N1CCN=C21` [Compd 39 c, N ‐{7‐Methoxy‐8‐[3‐(morpholin‐4‐yl)propoxy]‐2,3‐dihydroimidazo[1,2‐c]quinazolin‐5‐yl}isonicotinamide] had an IC50 of 63.7 nM.
Consider `COc1c(OCC(C)C)ccc2c1N=C(NC(=O)c1cccnc1)N1CCN=C21` [Compd 32 c, N ‐(8‐Isobutoxy‐7‐methoxy‐2,3‐dihydroimidazo[1,2‐c]quinazolin‐5‐yl)nicotinamide], for which the IC50 was 8 nM at p110α and 226 nM on p110β.
In the case of `COc1c(OCCCN2CCOCC2)ccc2c1N=C(NC(=O)c1cncnc1)N1CCN=C21` [Compd 39 h, N ‐{7‐Methoxy‐8‐[3‐(morpholin‐4‐yl)propoxy]‐2,3‐dihydroimidazo[1,2‐c]quinazolin‐5‐yl}pyrimidine‐5‐carboxamide], the values for the IC50 against p110α and against p110β were 132 nM and 286 nM, respectively.
Take `COc1c(OCCCN2CCOCC2)ccc2c1N=C(NC(=O)c1cccnc1)N1CCN=C21` [Compd 32 g, N ‐{7‐Methoxy‐8‐[3‐(morpholin‐4‐yl)propoxy]‐2,3‐dihydroimidazo[1,2‐c]quinazolin‐5‐yl}nicotinamide]: the IC50 came to 1.8 nM against p110α and 20.8 nM against p110β.
